Tested on: patients with fasting triglyceride levels >200 mg/dl and <500 mg/dl despite statin therapy
Assay: 12-week study: lipoprotein particle size (VLDL, LDL, HDL; nuclear magnetic resonance)
Assay type: in vivo, human
Conditions: for LDL Particle Size, Week 12 EP Median (IQR): MITT; for LDL Particle Size, Percent change from Baseline, Median (IQR) / LDL Particle Size, Difference from placebo, Estimated median: Week 12, MITT; for LDL Particle Size, Difference from placebo, Estimated median: difference in percent change
From the text: Parameters (a)-(z) can be measured in accordance with any clinically acceptable methodology. For example, triglycerides, total cholesterol, HDL-C and fasting blood sugar can be sample from serum and analyzed using standard photometry techniques. VLDL-TG, LDL-C and VLDL-C can be calculated or determined using serum lipoprotein fractionation by preparative ultracentrifugation and subsequent quantitative analysis by refractometry or by analytic ultracentrifugal methodology. Apo A1, Apo B and hsCRP can be determined from serum using standard nephelometry techniques. Lipoprotein (a) can be determined from serum using standard turbidimetric immunoassay techniques. LDL particle number and particle size can be determined using nuclear magnetic resonance (NMR) spectrometry. Remnants lipoproteins and LDL-phospholipase A2 can be determined from EDTA plasma or serum and serum, respectively, using enzymatic immunoseparation techniques. Oxidized LDL, intercellular adhesion molecule-1 and interleukin-2 levels can be determined from serum using standard enzyme immunoassay techniques. These techniques are described in detail in standard textbooks, for example Tietz Fundamentals of Clinical Chemistry, 6th Ed. (Burtis, Ashwood and Borter Eds.), WB Saunders Company.
A multi-center, placebo-controlled, randomized, double-blind, 12-week study was performed to evaluate the efficacy and safety of >96% E-EPA in patients with fasting triglyceride levels >200 mg/dl and <500 mg/dl despite statin therapy (the mean of two qualifying entry values needed to be >185 mg/dl and at least one of the values needed to be >200 mg/dl). The primary objective of the study was to determine the efficacy of >96% E-EPA 2 g daily and 4 g daily, compared to placebo, in lowering fasting TG levels in patients with high risk for cardiovascular disease and with fasting TG levels 200 mg/dl and <500 mg/dl, despite treatment to LDL-C goal on statin therapy.
The secondary objectives of this study were the following: • 1. To determine the safety and tolerability of >96% E-EPA 2 g daily and 4 g daily; • 2. To determine the effect of >96% E-EPA on lipid and apolipoprotein profiles including total cholesterol (TC), non-high-density lipoprotein cholesterol (non-HDL-C), low density lipoprotein cholesterol (LDL-C), high density lipoprotein cholesterol (HDL-C), and […]; • 3. To determine the effect of >96% E-EPA on lipoprotein associated phospholipase A2 (Lp-PLA2) from baseline to week 12; • 4. To determine the effect of >96% E-EPA on low-density lipoprotein (LDL) particle number and size; • 5. To determine the effect of >96% E-EPA on oxidized LDL; • 6. To determine the effect of >96% E-EPA on fasting plasma glucose (FPG) and hemoglobin A1c (HbA1c); • 7. To determine the effect of >96% E-EPA on insulin resistance; • 8. To determine the effect of >96% E-EPA on high-sensitivity C-reactive protein (hsCRP); • 9. To determine the effects of >96% E-EPA 2 g daily and 4 g daily on the incorporation of fatty acids into red blood cell membranes and into plasma phospholipids; • 10. To explore the relationship between baseline fasting TG levels and the reduction in fasting TG levels; and • 11. To explore the relationship between changes of fatty acid concentrations in plasma and red blood cell membranes, and the reduction in fasting TG levels.
The primary efficacy variable for the double-blind treatment period was percent change in TG from baseline to Week 12 endpoint. […]

[1] = 2 g/day E-EPA (n = 221), 12 weeks
[2] = 2 g/day E-EPA (n = 222), 12 weeks
[3] = 2 g/day, 12 weeks, Hodges-Lehmann median
[4] = 4 g/day E-EPA (n = 215), 12 weeks
[5] = 4 g/day E-EPA (n = 216), 12 weeks
[6] = 4 g/day, 12 weeks, Hodges-Lehmann median, listed as E-EPA
[7] = IPE 4 g/day (n = 215), 12 weeks
[8] = IPE 4 g/day (n = 216), 12 weeks
[9] = IPE 4 g/day vs placebo, 12 weeks, Hodges-Lehmann median

For CC/C=C\C/C=C\C/C=C\C/C=C\C/C=C\CCCC(=O)OCC [AMR101, ethyl eicosapentaenoate], the “LDL particle size, % Δ from baseline (median)” value [1] was “+0.5%”, the “LDL particle size, End (median)” value [1] was 20.0 nm and the “HDL particle size, % Δ from baseline (median)” value [2] was 0.0%. The “HDL particle size, End (median)” value [2] was 8.6 nm, the “VLDL particle size, % Δ from baseline (median)” value [2] was −5.0% and the “VLDL particle size, End (median)” value [2] was 53.2 nm. For the same compound, the “HDL particle size, Placebo-Adjusted Median Change from Baseline, 2 g/d” value [3] was 0.0%, the “LDL particle size, Placebo-Adjusted Median Change from Baseline, 2 g/d” value [3] was “+0.5%” and the “VLDL particle size, Placebo-Adjusted Median Change from Baseline, 2 g/d” value [3] was −4.8%. For the same compound, the “LDL particle size, % Δ from baseline (median)” value [4] was “+0.5%”, the “LDL particle size, End (median)” value [4] was 20.0 nm and the “HDL particle size, % Δ from baseline (median)” value [5] was −1.1%. For the same compound, the “HDL particle size, End (median)” value [5] was 8.6 nm, the “VLDL particle size, % Δ from baseline (median)” value [5] was −8.1% and the “VLDL particle size, End (median)” value [5] was 51.2 nm. For the same compound, the “HDL particle size, Placebo-Adjusted Median Change from Baseline, 4 g/d” value [6] was −1.2%, the “LDL particle size, Placebo-Adjusted Median Change from Baseline, 4 g/d” value [6] was “+0.5%” and the “VLDL particle size, Placebo-Adjusted Median Change from Baseline, 4 g/d” value [6] was −7.7%. The “LDL Particle Size, Week 12 EP Median (IQR)” value (AMR101 2g/d + statin, n 221) was 20.0 (0.6) nm, the “LDL Particle Size, Percent change from Baseline, Median (IQR)” value (AMR101 2g/d + statin) was 0.5 (2.5) % and the LDL Particle Size, Difference from placebo, Estimated median (AMR101 2g/d + statin) was 0.5%. The “LDL Particle Size, Week 12 EP Median (IQR)” value (AMR101 4g/d + statin, n 215) was 20.0 (0.6) nm, the “LDL Particle Size, Percent change from Baseline, Median (IQR)” value (AMR101 4g/d + statin) was 0.5 (2.5) % and the LDL Particle Size, Difference from placebo, Estimated median (AMR101 4g/d + statin) was 0.5%. The “LDL particle size, Change From Baseline, % (median)” value [7] was 0.5%, the “LDL particle size, End of Treatment (median)” value [7] was 20.0 nm and the “HDL particle size, Change From Baseline, % (median)” value [8] was −1.1%. The “HDL particle size, End of Treatment (median)” value [8] was 8.6 nm, the “VLDL particle size, Change From Baseline, % (median)” value [8] was −8.1% and the “VLDL particle size, End of Treatment (median)” value [8] was 51.2 nm. For the same compound, the “HDL particle size, Median Change From Baseline IPE 4 g/day vs Placebo, %” value [9] was −1.2%, the “LDL particle size, Median Change From Baseline IPE 4 g/day vs Placebo, %” value [9] was 0.5% and the “VLDL particle size, Median Change From Baseline IPE 4 g/day vs Placebo, %” value [9] was −7.7%.
